For one compound, IC50 results are on record in ChEMBL document CHEMBL1145923, “Synthesis and biological evaluation of 4-arylcoumarin analogues of combretastatins” (J Med Chem, 2003).

For this assay, the system named is CCRF-CEM. In words: Inhibitory activity against CEM human leukemia cell line. The assay is classed as functional, cell-based.

A value given as a limit tells only on which side of the number the result lay.

The IC50 is the concentration that gives 50% inhibition. A higher IC50 goes with lower potency.

`COc1cc2oc(=O)cc(-c3ccc4c(c3)OCO4)c2c(OC)c1OC` displayed an IC50 above 50 µM.
